# In the Kinase Knowledgebase extract (Sharma et al. 2016):
# Molecular target: CDK2 (UniProt P24941)
# Assay: Enzyme Assay
# Details: not given
row,Structure (SMILES),IC50
1,CC(C)C(=O)COc1nc(N)nc2[nH]cnc12,> 100 µM
2,COC(COc1nc(N)nc2[nH]cnc12)(OC)c1ccccc1,> 100 µM
3,COC1OC(COc2nc(N)nc3[nH]cnc23)C2OC(C)(C)OC12 (stereo not drawn),> 100 µM
4,CCC(COc1nc(N)nc2[nH]cnc12)(OC)OC,> 100 µM
5,Nc1nc(OCc2ccc3ccccc3c2)c2nc[nH]c2n1,> 100 µM
6,Nc1nc(OCCc2ccccc2)c2nc[nH]c2n1,> 100 µM
7,Nc1nc(OCc2cccc3ccccc23)c2nc[nH]c2n1,> 100 µM
8,CCOC(C)(COc1nc(N)nc2[nH]cnc12)OCC,> 100 µM
9,COCC(COc1nc(N)nc2[nH]cnc12)OC (stereo not drawn),> 100 µM
10,CC1(C)OC2OC(COc3nc(N)nc4[nH]cnc34)C3OC(C)(C)OC3C2O1 (stereo not drawn),> 100 µM

# More lines, now with the values ahead:
row,IC50,Structure (SMILES)
1,> 100 µM,Nc1nc(OCC23CC4CC(CC(C4)C2)C3)c2nc[nH]c2n1
2,> 100 µM,Nc1nc(OCC2CCCC2)c2nc[nH]c2n1
3,> 100 µM,Nc1nc(OCC2CCCCO2)c2nc[nH]c2n1 (stereo not drawn)
4,> 100 µM,C=C(C)C1CC=C(COc2nc(N)nc3[nH]cnc23)CC1 (stereo not drawn)
5,> 100 µM,Nc1nc(OCC2COC3(CCCCC3)O2)c2nc[nH]c2n1 (stereo not drawn)
6,> 100 µM,c1nc(OCC2CCCCO2)c2nc[nH]c2n1 (stereo not drawn)
7,> 100 µM,C=CCOc1nc(N)nc2[nH]cnc12
8,> 100 µM,C=CCOc1ncnc2[nH]cnc12
9,> 100 µM,CC1(C)OCC(COc2nc(N)nc3[nH]cnc23)O1 (stereo not drawn)
10,> 100 µM,CC(C)C1(COc2nc(N)nc3[nH]cnc23)OCCO1
11,> 100 µM,Nc1nc(OCC(O)CO)c2nc[nH]c2n1 (stereo not drawn)
12,> 100 µM,Nc1nc(OCC2COc3ccccc3O2)c2nc[nH]c2n1 (stereo not drawn)

# Same assay, conditions: concentration not given here
row,inhibition,Structure (SMILES)
1,6%,Cc1ccc(N=Nc2c(N)nc(N)nc2OCC2CCCCC2)cc1
